# Assay results from ChEMBL document CHEMBL1151914, “3D-QSAR studies of 2,2-diphenylpropionates to aid discovery of novel potent muscarinic antagonists” (Bioorg Med Chem, 2009).
# Test: Inhibition of [3H]NMS binding to muscarinic receptor in mouse N4TG1 neuroblastoma cells
row,Compound,pKi
1,CN1C2CC[C@H]1C[C@@H](OC(=O)C(C)(c1ccccc1)c1ccccc1)C2,8.4
2,CN1CC2CC1C[C@H](OC(=O)C(C)(c1ccccc1)c1ccccc1)C2 (stereo partly drawn),8.3
3,CN1CCC(OC(=O)C(C)(c2ccccc2)c2ccccc2)C1 (stereo not drawn),7.8
4,C[N+](C)(C)CC#CC(O)(c1cccs1)C1CCCC1 (stereo not drawn),7.1
5,CN1[C@@H]2CC[C@H]1C[C@@H](OC(=O)C(CO)c1ccccc1)C2 (stereo partly drawn) [ATROPINE],8.4
6,CCN1CCCC(OC(=O)C(C)(c2ccccc2)c2ccccc2)C1 (stereo not drawn),6.3
7,CCN1CCC(COC(=O)C(C)(c2ccccc2)c2ccccc2)CC1,6.9
8,CN1CCCC(COC(=O)C(C)(c2ccccc2)c2ccccc2)C1 (stereo not drawn),7.8
9,CC[N+](C)(CC)CC(=O)Nc1ccc(Cl)c(Cl)c1,> 3.33
10,CN1CCC(OC(=O)C(C)(c2ccccc2)c2ccccc2)CC1,8.8
11,C[n+]1cscc1C(C)(C)OC(=O)c1ccccc1,5.5
12,CN1CCC(COC(=O)C(C)(c2ccccc2)c2ccccc2)CC1,7.7
13,CN1CCC2CC1C[C@@H](OC(=O)C(C)(c1ccccc1)c1ccccc1)C2 (stereo partly drawn),8.3
14,CC(C)N(COC(=O)c1ccc(N)cc1)C(C)C,5.3
15,CCN1CCC(OC(=O)C(C)(c2ccccc2)c2ccccc2)CC1,9
16,CC(C(=O)OCCN1CCCCC1)(c1ccccc1)c1ccccc1,8.2
17,C[N+](C)(C)CCOC(=O)C(c1ccccc1)c1ccccc1,7.1
18,CC(C(=O)OCCN1CCCC1)(c1ccccc1)c1ccccc1,8.2
19,CN1CCC(OC(=O)C(CO)c2ccc(C(F)(F)F)cc2)CC1 (stereo not drawn),7.7
20,CCN(CC)CCOC(=O)C(C)(c1ccccc1)c1ccccc1 [APROFENE],8.2
21,CC[N+]1(CCOC(=O)C(CO)c2ccccc2)CCCCC1 (stereo not drawn),8.7
22,CN1CCCCC1COC(=O)C(C)(c1ccccc1)c1ccccc1 (stereo not drawn),6.8
23,CN1CCCC1CCOC(=O)C(C)(c1ccccc1)c1ccccc1 (stereo not drawn),8
